# Assay: recombinant UMI read abundance after kanamycin selection (control-corrected) (log10(CPM+1)); higher = more efficient recombination; extreme values may be limits of the assay; sequences stand for … in AGTGCAGAGAAAATCGGCCAGTTTTCTCTGCCTGCAGTCCGCATGCCGTGGGACCCCTTGGGTTCTAACCTGTTGCCTAGATTTATGCAGCGGACTGCCTTTCTCCCAAAGTGATAAACCGG…AGGTTGGTTTCACT; site = the 11-nt donor
# In short: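 Two replicates each of selected and unselected plating were used in this pooled Escherichia coli screen of donor and donor-binding-loop pairs for the IS621 bridge recombinase. Selection was with IPTG (0.07 mM) and kanamycin. Counts of recombinant UMIs, amplified across the donor–target junction, were converted to CPM, averaged, scaled by control-derived factors and reported as log10(CPM+1).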
# 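Further: IS621 bridge recombinase in Escherichia coli cells against a fixed T5 target plasmid.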
row,Sequence,recombinant UMI read abundance (log10)
1,GTATGTACATGGACCGGTTTTCCCGGTAATCCGTATTTGAC (site GTAAGTACTGT),0.262
2,GTATGTACATGGACCGGTTTTCCCGGTAATCCGTATTTGAC (site GTACGTACTGT),2.5
3,GTATGTACATGGACCGGTTTTCCCGGTAATCCGTATTTGAC (site GTAGGTACTGT),0.95
4,GTATGTACATGGACCGGTTTTCCCGGTAATCCGTATTTGAC (site GTATGTACTGT),2.9
5,GTATTAACATGGACCGGTTTTCCCGGTAATCCGTATTTGCA (site GTATTAACTTG),2.37
6,GTATTATCATGGACCGGTTTTCCCGGTAATCCGTATTTGTG (site GTATTATCTCA),2.22
7,GTATTCACATGGACCGGTTTTCCCGGTAATCCGTATTTGTA (site GTATACACTTA),0.154
8,GTATTCACATGGACCGGTTTTCCCGGTAATCCGTATTTGTA (site GTATCCACTTA),0.507
9,GTATTCACATGGACCGGTTTTCCCGGTAATCCGTATTTGTA (site GTATGCACTTA),0.0233
10,GTATTCACATGGACCGGTTTTCCCGGTAATCCGTATTTGTA (site GTATTCACTTA),2.35
11,GTATTGACATGGACCGGTTTTCCCGGTAATCCGTATTTGTG (site GTATTGACTCA),1.4
12,GTCAAAGCATGGACCGGTTTTCCCGGTAATCCGTATTTGGT (site GTCAAAGCTAC),2.11
13,GTCAACACATGGACCGGTTTTCCCGGTAATCCGTATTTGTC (site GTCAACACTGA),2.35
14,GTCAGATCATGGACCGGTTTTCCCGGTAATCCGTATTTGCG (site GTCAGATCTCG),1.77
15,GTCAGTGCATGGACCGGTTTTCCCGGTAATCCGTATTTGCA (site GTCAGTGCTTG),2.49
16,GTCCAGGCATGGACCGGTTTTCCCGGTAATCCGTATTTGTA (site GTCCAGGCTTA),0.928
17,GTCCTATCATGGACCGGTTTTCCCGGTAATCCGTATTTGGA (site GTCCTATCTTC),1.41
18,GTCCTTACATGGACCGGTTTTCCCGGTAATCCGTATTTGAG (site GTCCTTACTCT),0.376
19,GTCGAACCATGGACCGGTTTTCCCGGTAATCCGTATTTGAC (site GTCGAACCTGT),0

row,Sequence,recombinant UMI read abundance (log10)
1,GTCGAATCATGGACCGGTTTTCCCGGTAATCCGTATTTGGG (site GTCGAATCTCC),0.914
2,GTCGAGTCATGGACCGGTTTTCCCGGTAATCCGTATTTGTT (site GTCGAGTCTAA),2.79
3,GTCGGGACATGGACCGGTTTTCCCGGTAATCCGTATTTGGG (site GTCGGGACTCC),0.0114
4,GTCGGGGCATGGACCGGTTTTCCCGGTAATCCGTATTTGGC (site GTCGGGGCTGC),1.22
5,GTCGTAGCATGGACCGGTTTTCCCGGTAATCCGTATTTGCC (site GTCGTAGCTGG),2.67
6,GTCGTTGCATGGACCGGTTTTCCCGGTAATCCGTATTTGAA (site GTCGTTGCTTT),2.14
7,GTCTATACATGGACCGGTTTTCCCGGTAATCCGTATTTGAC (site ATCTATACTGT),0.841
8,GTCTATACATGGACCGGTTTTCCCGGTAATCCGTATTTGAC (site CTCTATACTGT),0.0424
9,GTCTATACATGGACCGGTTTTCCCGGTAATCCGTATTTGAC (site GTCTATACTGT),2.33
10,GTCTATACATGGACCGGTTTTCCCGGTAATCCGTATTTGAC (site TTCTATACTGT),1.01
11,GTCTATTCATGGACCGGTTTTCCCGGTAATCCGTATTTGAC (site GTCTATTCTGT),2.09
12,GTCTGATCATGGACCGGTTTTCCCGGTAATCCGTATTTGCG (site GTCTGATCTCG),2.17
13,GTCTGATCATGGACCGGTTTTCCCGGTAATCCGTATTTGGG (site GTCTGATCTCC),0.011
14,GTCTGCACATGGACCGGTTTTCCCGGTAATCCGTATTTGTA (site GTATGCACTTA),0.0171
15,GTCTGCACATGGACCGGTTTTCCCGGTAATCCGTATTTGTA (site GTCTGCACTTA),1.44
16,GTCTGCACATGGACCGGTTTTCCCGGTAATCCGTATTTGTA (site GTGTGCACTTA),0.0326
17,GTCTGCACATGGACCGGTTTTCCCGGTAATCCGTATTTGTA (site GTTTGCACTTA),0.0829
18,GTGAGAACATGGACCGGTTTTCCCGGTAATCCGTATTTGGC (site GTAAGAACTGC),2.2
19,GTGAGAACATGGACCGGTTTTCCCGGTAATCCGTATTTGGC (site GTCAGAACTGC),0

row,Sequence,recombinant UMI read abundance (log10)
1,GTGAGAACATGGACCGGTTTTCCCGGTAATCCGTATTTGGC (site GTGAGAACTGC),1.49
2,GTGAGAACATGGACCGGTTTTCCCGGTAATCCGTATTTGGC (site GTTAGAACTGC),0
3,GTGAGGTCATGGACCGGTTTTCCCGGTAATCCGTATTTGCT (site GTGAGGTCTAG),3.11
4,GTGATTCCATGGACCGGTTTTCCCGGTAATCCGTATTTGCA (site GTGATTCCTTG),1.09
5,GTGATTCCATGGACCGGTTTTCCCGGTAATCCGTATTTGGA (site GTGATTCCTTC),0.421
6,GTGATTCCATGGACCGGTTTTCCCGGTAATCCGTATTTGGT (site GTGATTCCTAC),0.318
7,GTGCCTACATGGACCGGTTTTCCCGGTAATCCGTATTTGGC (site GTGCCTACTGC),1.12
8,GTGCTGACATGGACCGGTTTTCCCGGTAATCCGTATTTGTT (site GTGCTGACTAA),0.314
9,GTGCTTACATGGACCGGTTTTCCCGGTAATCCGTATTTGTA (site GTGCTTACTTA),0.318
10,GTGGAGGCATGGACCGGTTTTCCCGGTAATCCGTATTTGCG (site GTGGAGGCTCA),1.56
11,GTGGAGGCATGGACCGGTTTTCCCGGTAATCCGTATTTGCG (site GTGGAGGCTCC),0.392
12,GTGGAGGCATGGACCGGTTTTCCCGGTAATCCGTATTTGCG (site GTGGAGGCTCG),2.28
13,GTGGAGGCATGGACCGGTTTTCCCGGTAATCCGTATTTGCG (site GTGGAGGCTCT),0.716
14,GTGGAGGCATGGACCGGTTTTCCCGGTAATCCGTATTTGTC (site GTGGAGGCTAA),0.657
15,GTGGAGGCATGGACCGGTTTTCCCGGTAATCCGTATTTGTC (site GTGGAGGCTCA),0.549
16,GTGGAGGCATGGACCGGTTTTCCCGGTAATCCGTATTTGTC (site GTGGAGGCTGA),2.67
17,GTGGAGGCATGGACCGGTTTTCCCGGTAATCCGTATTTGTC (site GTGGAGGCTTA),1.64
18,GTGGAGGCATGGACCGGTTTTCCCGGTAATCCGTATTTGTG (site ATGGAGGCTCA),1.53
19,GTGGAGGCATGGACCGGTTTTCCCGGTAATCCGTATTTGTG (site CTGGAGGCTCA),0.921
